Values of other authors as cited in patent US5096924A, “Anticancer antibiotic MI43-37F11 substance” (501 Azidan Hojin Biseibutsu Kagaku Kenkyu Kai, priority 1989, dated 1992).

System: cyclic adenosine monophosphate (CAMP) phosphodiesterase
Conditions: disclosed in Japanese Kokai No. 71076/78; cited from earlier work

Structure (SMILES) | inhibitory activity to cyclic adenosine monophosphate (CAMP) phosphodiesterase
COc1c(O)cc2cc(CO)oc(=O)c2c1O [3-hydroxymethyl-6,8-dihydroxy-7-methoxyisocumarin] | inhibitory activity
COc1cc2cc(CO)oc(=O)c2c(O)c1OC [3-hydroxymethyl-6,7-dimethoxy-8-hydroxyisocumarin] | inhibitory activity
